Assays:
[1] = test system: BH4 levels in SK-N-BE (2) cells; test: SKN-N-BE (2) cellular assay, BH4 levels by LC-MS; assay type: cell-based; settings: Homo sapiens, SKNBE2, read-out: SK-N-BE(2) IC50, SK-N-BE (2) cells, BH4 levels by LC-MS
[2] = target: SNAP-hSPR (sepiapterin reductase, SPR) (Homo sapiens, UniProt P35270); test: biochemical; assay type: binding; settings: terbium labelled SNAP-hSPR / SSZ labelled SNAP-EGFP; read-out: hTR-FRET IC50
Sequence of SNAP-hSPR (sepiapterin reductase, SPR) (P35270 whole entry): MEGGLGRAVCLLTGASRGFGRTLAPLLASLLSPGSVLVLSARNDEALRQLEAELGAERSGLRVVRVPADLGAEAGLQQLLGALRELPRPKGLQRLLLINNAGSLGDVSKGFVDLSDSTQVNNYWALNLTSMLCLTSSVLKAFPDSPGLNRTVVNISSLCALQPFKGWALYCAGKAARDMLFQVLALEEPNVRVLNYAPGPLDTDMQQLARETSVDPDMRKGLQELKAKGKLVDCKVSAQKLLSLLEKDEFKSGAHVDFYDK

| Compound | IC50 [1] [µM] | IC50 [2] [µM] |
| --- | --- | --- |
| O=C(c1ccnc(-c2nc3ccsc3c(=O)[nH]2)c1)N1CCC(c2nc3ccccc3s2)CC1 [Q-0548] | 2.1 | 0.02 |
| Cc1c(C(=O)N2CC[C@@H](N(C)C(=O)OC(C)(C)C)C2)cnn1-c1nc2ccsc2c(=O)[nH]1 [Q-0549] | 0.4 | 0.004 |
| Cc1c(C(=O)N2CCC(C#N)(c3ccccc3)CC2)cnn1-c1nc2ccsc2c(=O)[nH]1 [Q-0550] | 0.1 | 0.002 |
| Cc1c(C(=O)N2CCC3(CCCN3Cc3ccccc3)C2)cnn1-c1nc2c(c(=O)[nH]1)CCC2 (stereo not drawn) [Q-0551] | 0.5 | 0.006 |
| Cc1c(C(=O)N2CCC3(CCCCN3C(=O)OC(C)(C)C)C2)cnn1-c1nc2c(c(=O)[nH]1)CCC2 (stereo not drawn) [Q-0552] | 0.038 | 0.007 |
| CC(C)(C#N)C1CCN(C(=O)c2cnn(-c3nc4c(c(=O)[nH]3)CCC4)c2C2CC2)CC1 [Q-0553] | 0.2 | 0.006 |
| O=C(c1ccnc(-c2nc3ccsc3c(=O)[nH]2)c1)N1CCC(c2c[nH]c3ccccc23)CC1 [Q-0555] | 0.7 | 0.02 |
| Cc1c(C(=O)N2CCN3CCC[C@@H]3C2)cnn1-c1nc2ccsc2c(=O)[nH]1 [Q-0556] | 0.6 | 0.007 |
| Cc1c(C(=O)N2CCC3OCCCC3C2)cnn1-c1nc2ccsc2c(=O)[nH]1 (stereo not drawn) [Q-0557] | 0.6 | 0.008 |
| O=C(O)c1ccnc(-c2nc3c(c(=O)[nH]2)CCC3)c1 [Q-0558] | 10 | 5 |
| Cc1c(C(=O)N2CCC(c3nc4ccccc4s3)CC2)cnn1-c1nc2ccsc2c(=O)[nH]1 [Q-0559] | 0.038 | 0.007 |
| Cc1c(C(=O)N2CCC(c3c[nH]c4ccccc34)CC2)cnn1-c1nc2ccsc2c(=O)[nH]1 [Q-0560] | 0.012 | 0.003 |
| Cc1c(C(=O)N2CCC(C#N)(c3ccccc3)CC2)cnn1-c1nc2sccc2c(=O)[nH]1 [Q-0561] | 0.011 | 0.004 |
| CCC1(C#N)CCN(C(=O)c2cnn(-c3nc4ccsc4c(=O)[nH]3)c2C)CC1 [Q-0562] | 0.2 | 0.004 |
| CCC1(C#N)CCN(C(=O)c2cnn(-c3nc4sccc4c(=O)[nH]3)c2C)CC1 [Q-0563] | 0.3 | 0.005 |
| Cc1c(C(=O)N2CCC(C(F)(F)F)CC2)ccnc1-c1nc2ccsc2c(=O)[nH]1 [Q-0564] | 4 | 0.2 |
| Cc1c(C(=O)N2CCC(c3c[nH]c4cc(F)ccc34)CC2)cnn1-c1nc2c(c(=O)[nH]1)CCC2 [Q-0565] | 0.011 | 0.006 |
| O=C(O)c1ccnc(-c2nc3sccc3c(=O)[nH]2)c1 [Q-0566] | 10 | 5 |
| Cc1c(C(=O)N2CCN(c3ccc(F)cc3F)CC2)cnn1-c1nc2c(c(=O)[nH]1)CCC2 [Q-0567] | 0.02 | 0.003 |
| Cc1c(C(=O)N2CC(CNC(=O)OC(C)(C)C)C2)cnn1-c1nc2c(c(=O)[nH]1)CCC2 [Q-0568] | 0.2 | 0.006 |
| Cc1c(C(=O)N2CC3COCC(C3)C2)cnn1-c1nc2c(c(=O)[nH]1)CCC2 [Q-0569] | 0.3 | 0.01 |
| Cc1c(C(=O)N2CCN(c3ccccc3Cl)CC2)cnn1-c1nc2c(c(=O)[nH]1)CCC2 [Q-0570] | 0.023 | 0.003 |
| Cc1c(C(=O)N2CCC(c3c[nH]c4ccccc34)CC2)cnn1-c1nc2sccc2c(=O)[nH]1 [Q-0573] | 0.035 | 0.003 |
| Cc1c(C(=O)N2CCC(c3nc4ccccc4s3)CC2)cnn1-c1nc2sccc2c(=O)[nH]1 [Q-0574] | 0.047 | 0.006 |
| Cc1c(C(=O)N2CCN3CCC[C@@H]3C2)cnn1-c1nc2c(c(=O)[nH]1)CCC2 [Q-0575] | 0.2 | 0.003 |
| Cc1c(C(=O)N2CCC3OCCCC3C2)cnn1-c1nc2c(c(=O)[nH]1)CCC2 (stereo not drawn) [Q-0576] | 0.1 | 0.006 |
| Cc1c(C(=O)N2CCC3(CCCCN3)C2)cnn1-c1nc2c(c(=O)[nH]1)CCC2 (stereo not drawn) [Q-0577, 2-(5-methyl-4-(2,6-diazaspiro[4.5]decane-2-carbonyl)-1H-pyrazol-1-yl)-6,7-dihydro-3H-cyclopenta[d]pyrimidin-4(5H)-one] | 2.1 | 0.04 |
| CC(C#N)C1CCN(C(=O)c2cnn(-c3nc4c(c(=O)[nH]3)CCC4)c2C2CC2)CC1 (stereo not drawn) [Q-0578] | 0.7 | 0.008 |
| Cc1c(C(=O)N2CCC3(CCCCN3C(=O)OC(C)(C)C)C2)cnn1-c1nc2ccsc2c(=O)[nH]1 (stereo not drawn) [Q-0579] | 0.1 | 0.005 |
| Cc1c(C(=O)N2CCC(C(C)(C)C)CC2)cnn1-c1nc2c(c(=O)[nH]1)CCC2 [Q-0580] | 0.022 | 0.003 |

Reference: patent publication US9963462B2 (priority 2015, dated 2018)
